Laboratory results published in US20170218375A1, “MORPHOLINOS, MORPHOLINO UPREGULATING, AND ASSOCIATED METHODS” (University of Utah Research Foundation, priority 2011, published 2017).
{Dendrimer} = dendrimer conjugate (vivo-morpholino)

Key:
[1] = tested on: mbVEGFR2 mRNA; test: RT-PCR of mbVEGFR2 mRNA in mouse MS-1 cell line; format: cell-based
Description: Because VEGFR2_MOe13 decreases mbVEGFR2 and increases sVEGFR2, it is expected that VEGFR2_MOe13 can inhibit angiogenesis and lymphangiogenesis in vivo. To study the effect of VEGFR2_MOe13 in animal models, moVEGFR2_MOe13 was created that targets the exon13-intron13 junction of the mouse VEGFR2 gene. By RT-PCR analysis, it was found moVEGFR2_MOe13 increased sVEGFR2 mRNA and decreased mbVEGFR2 mRNA in the mouse MS-1 cell line (FIG. 7A). […] FIGS. 7(f, g) show the mean area of corneal neovascularization and lymphangiogenesis respectively (n=13-16). Risk factors (p-value) were calculated by two-tail student's t-test (*: p<0.05, **p<0.01, ***p<0.001). Error bar is ±s.e.m.
Each morpholino oligomer was purchased from Gene Tools (Philomath, Oreg.). The sequences of each morpholino oligomer and primers for PCR are listed in supplemental Table. […] The cells were washed three times and fluorescence was detected by a FACScan Analyzer (BD Biosciences, San Jose, Calif.). […]
cDNAs were synthesized from 400 ng total RNA using Omniscript RT kit (Qiagen, Valencia, Calif.) and Oligo-dT primer(dT20) according to the manufacturer's instructions. Real-time PCR was performed using QuantiTect SYBR Green PCR Kit (Qiagen, Valencia, Calif.) and 1 μl of cDNA. […]

[2] = tested on: corneal transplant rejection; test: Mouse corneal transplantation model; format: in vivo
Method: It was also examined whether moVEGFR2_MOe13 can suppress murine corneal transplant rejection. After cornea transplantation, moVEGFR2_MOe13, STD_MO or DPBS were injected subconjuctivally. […] The arrow indicates censored data. […] Scale bar is 1 mm. FIGS. 12(c, d) Show the mean area of corneal neovascularization and lymphangiogenesis at 8 weeks respectively (n=11-17). Risk factors (p-value) were calculated by two-tail student's t-test (*: p<0.05, **p<0.01). Error bar is ±s.e.m.
Mouse corneal transplantation has been described previously. The donor cornea was marked with 2 mm trephine, the anterior chamber was penetrated using a knife (ClearCut™ Alcon, Inc) and the cornea was cut with Vannas scissors and then placed in Balanced Salt Solution (BSS® Alcon Laboratories, Inc, Fort Worth). The recipient mouse was anesthetized by intramuscular injection with ketamine (100 mg/kg body weight) and xylazine (20 mg/kg body weight). To dilate pupil and anesthetize the cornea, 1% tropicamide ophthalmic solution and 0.5% proparacaine ophthalmic solution were used. The recipient's right cornea was marked with 1.5 mm trephine and removed by the same method as the donor cornea. Viscoelastic material (Healon, 1% sodium hyaluronate, Abbott Medical Optics, IL) was used during recipient cornea dissection. […]

5′-cacccagggatgcctccatacCTAG-3′ (antisense CACCCAGGGATGCCTCCATACCTAG; all phosphorodiamidate morpholino (PMO), 3' {Dendrimer}) [moVEGFR2_MOe13, morpholino that targets the exon13-intron13 junction of the mouse VEGFR2 gene; in vivo conjugated with a dendrimer (vivo-morpholino)]
mbVEGFR2 mRNA by RT-PCR [1]: decreased | corneal neovascularization and lymphangiogenesis at 8 weeks ([2]; mean area, CD31 and LYVE-1 stained cornea at the endpoint (8 weeks), FIGS. 12C, D): decreased | graft survival ([2]; mouse cornea transplantation, 15 ul of 40 ng/μl subconjunctivally day of transplantation and weeks 1-4, compared with DPBS and STD_MO (log rank p=0.0186 and 0.0610)): increased
